According to ChEMBL document CHEMBL1201862, “PubChem BioAssay data set” (2004):
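Method: 48-hour compound exposure of cells in 96-well plates, five concentrations, linear interpolation of endpoints. Abbreviation: GI50, concentration required for 50% inhibition of growth.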 Active and inactive are the calls of the source. Cut-off read from the data, not from the text of the source: active = GI50 up to about 1.1 µM and inactive = higher.

Tests used:
Experiment in all cases: NCI tumour cell line growth inhibition, 48 h
[1] = system: T47D
[2] = system: Malme-3M
[3] = system: SNB-75
[4] = system: SF-268
[5] = system: MDA-MB-231
[6] = system: SF-295
[7] = system: NCI-H460
[8] = system: OVCAR-8
[9] = system: A498
[10] = system: NCI-H522
[11] = system: EKVX
[12] = system: SK-MEL-28
[13] = system: BT-549
[14] = system: A549
[15] = system: CAKI-1
[16] = system: LOX IMVI
[17] = system: MOLT-4
[18] = system: SK-MEL-2
[19] = system: HL-60
[20] = system: HT-29
[21] = system: SK-MEL-5
[22] = system: IGROV-1
[23] = system: SK-OV-3
[24] = system: SR
[25] = system: U-251
[26] = system: K562
[27] = system: OVCAR-4
[28] = system: KM12
[29] = system: SW-620
[30] = system: NCI-H226
[31] = system: MDA-N
[32] = system: SF-539
[33] = system: MDA-MB-435
[34] = system: M14
[35] = system: CCRF-CEM
[36] = system: SN12C
[37] = system: UACC-257
[38] = system: SNB-19
[39] = system: Hs-578T
[40] = system: COLO 205
[41] = system: NCI/ADR-RES
[42] = system: HCT-15
[43] = system: TK-10
[44] = system: HOP-62
[45] = system: PC-3
[46] = system: RXF 393
[47] = system: 786-0
[48] = system: OVCAR-3
[49] = system: ACHN
[50] = system: UACC-62
[51] = system: NCI-H23
[52] = system: RPMI-8226
[53] = system: HOP-92
[54] = system: MCF7
[55] = system: HCT-116
[56] = system: HCC 2998
[57] = system: OVCAR-5
[58] = system: DU-145

In the case of `COc1ccc(-c2cc(=O)c3ccc(O)cc3o2)cc1OC`, the GI50 [1] was 25.9 µM (inactive), the GI50 [2] was 67.1 µM (inactive) and the GI50 [3] was 10.2 µM (inactive). The GI50 [4] was > 100 µM (inactive), the GI50 [5] was 77.4 µM (inactive) and the GI50 [6] was 31.3 µM (inactive). The GI50 [7] was 25.5 µM (inactive), the GI50 [8] was 37.4 µM (inactive) and the GI50 [9] was 34 µM (inactive). The GI50 [10] was 16.6 µM (inactive), the GI50 [11] was 43.7 µM (inactive) and the GI50 [12] was 71.9 µM (inactive). For the same compound, the GI50 [13] was 46.5 µM (inactive), the GI50 [14] was 38.5 µM (inactive) and the GI50 [15] was 25.7 µM (inactive). The GI50 [16] was 33.5 µM (inactive), the GI50 [17] was 25.6 µM (inactive) and the GI50 [18] was > 100 µM (inactive). For the same compound, the GI50 [19] was 23.5 µM (inactive), the GI50 [20] was 41.8 µM (inactive) and the GI50 [21] was 15.2 µM (inactive). The GI50 [22] was 32.9 µM (inactive), the GI50 [23] was 41.4 µM (inactive) and the GI50 [24] was 13 µM (inactive). For the same compound, the GI50 [25] was 43.9 µM (inactive), the GI50 [26] was 30 µM (inactive) and the GI50 [27] was 24.7 µM (inactive). For the same compound, the GI50 [28] was 59.3 µM (inactive), the GI50 [29] was 37.8 µM (inactive) and the GI50 [30] was > 100 µM (inactive). The GI50 [31] was 47.6 µM (inactive), the GI50 [32] was 23.4 µM (inactive) and the GI50 [33] was 45.5 µM (inactive). The GI50 [34] was 72.8 µM (inactive), the GI50 [35] was 25.8 µM (inactive) and the GI50 [36] was 41.3 µM (inactive). The GI50 [37] was > 100 µM (inactive), the GI50 [38] was 35.6 µM (inactive) and the GI50 [39] was 32.7 µM (inactive). The GI50 [40] was 68.4 µM (inactive), the GI50 [41] was 34.9 µM (inactive) and the GI50 [42] was 32.4 µM. For the same compound, the GI50 [43] was 59.3 µM (inactive), the GI50 [44] was 25.5 µM (inactive) and the GI50 [45] was 32.3 µM (inactive). For the same compound, the GI50 [46] was 5.85 µM (inactive), the GI50 [47] was 56.9 µM (inactive) and the GI50 [48] was 57.3 µM (inactive). For the same compound, the GI50 [49] was 48.9 µM (inactive), the GI50 [50] was 33.8 µM (inactive) and the GI50 [51] was 52.1 µM (inactive). The GI50 [52] was 22.8 µM (inactive), the GI50 [53] was 56.6 µM (inactive) and the GI50 [54] was 25.8 µM (inactive). For the same compound, the GI50 [55] was 30.2 µM (inactive), the GI50 [56] was 46.9 µM (inactive) and the GI50 [57] was > 100 µM (inactive). The GI50 [58] was 48 µM (inactive).
